Reference: US20230085307A1, “PYRIDAZINONE COMPOUND AND HERBICIDE” (NISSAN CHEMICAL CORPORATION, priority 2019, published 2023)

system: windgrass; assay: Test Example 4: herbicidal effect by soil treatment (Table 19, symbol L); type: in vivo, windgrass (Apera spica-venti); details: amount of applied herbicide 320 g/ha
In short: (§1)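 Pre-emergence style soil spray: seeds under ~1.5 cm sterilized diluvial soil received a uniform coat of emulsion diluted to the predetermined herbicide amount. Greenhouse 25–30° C; readout at week three on previously defined criteria.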

| Compound | herbicidal effect rating, L: windgrass |
| --- | --- |
| CCOc1cc(F)ccc1-c1sc2ccccc2c1-c1c(O)c(C)nn(C)c1=O [1-061] | 5 (Herbicidal rate of 90% or more (almost completely withered)) |
| CCCC(=O)Oc1c(C)nn(C)c(=O)c1-c1c(-c2ccc(OC)c(OC)c2)sc2ccccc12 [1-073] | 1 (Herbicidal rate of 5% or more and less than 20%) |

system: blackgrass; assay: Test Example 5: herbicidal effect by foliage application, plastic box (Table 20, symbol J); type: in vivo, blackgrass (Alopecurus myosuroides); details: foliage application, 320 g/ha, three weeks after application
In short: (§2)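 Plants were sown into sterilized diluvial soil under about 1.5 cm cover and kept in a greenhouse at 25° C. to 30° C. Fourteen days on, foliage received an even spray of the diluted emulsion. Herbicidal or crop effect was judged three weeks afterwards.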

| Compound | herbicidal effect grade, J: blackgrass |
| --- | --- |
| CCOc1cc(F)ccc1-c1sc2ccccc2c1-c1c(O)c(C)nn(C)c1=O [1-061] | 5 (Herbicidal rate of 90% or more (almost completely withered)) |
| CCCC(=O)Oc1c(C)nn(C)c(=O)c1-c1c(-c2ccc(OC)c(OC)c2)sc2ccccc12 [1-073] | 4 (Herbicidal rate of 70% or more and less than 90%) |

system: Italian ryegrass; assay: Test Example 4: herbicidal effect by soil treatment (Table 19, symbol K); type: in vivo, Italian ryegrass (Lolium multiflorum); details: amount of applied herbicide 320 g/ha
In short: as §1

| Compound | herbicidal effect rating, K: Italian ryegrass |
| --- | --- |
| CCOc1cc(F)ccc1-c1sc2ccccc2c1-c1c(O)c(C)nn(C)c1=O [1-061] | 3 (Herbicidal rate of 40% or more and less than 70%) |
| CCCC(=O)Oc1c(C)nn(C)c(=O)c1-c1c(-c2ccc(OC)c(OC)c2)sc2ccccc12 [1-073] | 5 (Herbicidal rate of 90% or more (almost completely withered)) |

system: Chinese sprangletop; assay: Test Example 3: herbicidal effect by foliage application, Wagner pot (Table 18, symbol D); type: in vivo, chinese sprangletop (Leptochloa chinensis); details: 320 g/ha
In short: (§3)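 Plants were sown in alluvial soil held under 0.1–0.5 cm standing water and grown 14 days in a greenhouse at 25–30 °C. An emulsifiable formulation, water-diluted to the set dose, was then sprayed onto the foliage, and effects were scored three weeks later using previously defined criteria.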

| Compound | herbicidal effect on D (Chinese sprangletop), rating 0-5 |
| --- | --- |
| CCOc1cc(F)ccc1-c1sc2ccccc2c1-c1c(O)c(C)nn(C)c1=O [1-061] | 4 (Herbicidal rate of 70% or more and less than 90%) |
| CCCC(=O)Oc1c(C)nn(C)c(=O)c1-c1c(-c2ccc(OC)c(OC)c2)sc2ccccc12 [1-073] | 3 (Herbicidal rate of 40% or more and less than 70%) |

system: redroot pigweed; assay: Test Example 5: herbicidal effect by foliage application, plastic box (Table 20, symbol N); type: in vivo, redroot pigweed (Amaranthus retroflexus); details: foliage application, 320 g/ha, three weeks after application
In short: as §2

| Compound | herbicidal effect grade, N: redroot pigweed |
| --- | --- |
| CCOc1cc(F)ccc1-c1sc2ccccc2c1-c1c(O)c(C)nn(C)c1=O [1-061] | 5 (Herbicidal rate of 90% or more (almost completely withered)) |
| CCCC(=O)Oc1c(C)nn(C)c(=O)c1-c1c(-c2ccc(OC)c(OC)c2)sc2ccccc12 [1-073] | 5 (Herbicidal rate of 90% or more (almost completely withered)) |

system: lambsquarters; assay: Test Example 4: herbicidal effect by soil treatment (Table 19, symbol O); type: in vivo, lambsquarters (Chenopodium album); details: amount of applied herbicide 320 g/ha
In short: as §1

| Compound | herbicidal effect rating, O: lambsquarters |
| --- | --- |
| CCOc1cc(F)ccc1-c1sc2ccccc2c1-c1c(O)c(C)nn(C)c1=O [1-061] | 3 (Herbicidal rate of 40% or more and less than 70%) |
| CCCC(=O)Oc1c(C)nn(C)c(=O)c1-c1c(-c2ccc(OC)c(OC)c2)sc2ccccc12 [1-073] | 5 (Herbicidal rate of 90% or more (almost completely withered)) |

system: lambsquarters; assay: Test Example 5: herbicidal effect by foliage application, plastic box (Table 20, symbol O); type: in vivo, lambsquarters (Chenopodium album); details: foliage application, 320 g/ha, three weeks after application
In short: as §2

| Compound | herbicidal effect grade, O: lambsquarters |
| --- | --- |
| CCOc1cc(F)ccc1-c1sc2ccccc2c1-c1c(O)c(C)nn(C)c1=O [1-061] | 4 (Herbicidal rate of 70% or more and less than 90%) |
| CCCC(=O)Oc1c(C)nn(C)c(=O)c1-c1c(-c2ccc(OC)c(OC)c2)sc2ccccc12 [1-073] | 5 (Herbicidal rate of 90% or more (almost completely withered)) |

system: late watergrass; assay: Test Example 1: herbicidal activity, application before weed generation under submerged conditions (Table 16, symbol A); type: in vivo, late watergrass (Echinochloa oryzicola); details: 320 g/ha applied herbicide
In short: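 Submerged Wagner pots (alluvial soil, 4 cm water) sown with weed seeds and planted with 2.5-leaf rice seedlings; emulsifiable concentrate diluted in water applied to water surface on sowing day. Held in greenhouse at 25-30 °C; injury scored 0-5 by herbicidal rate after three weeks.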

| Compound | Herbicidal effect on A: late watergrass (grade 0-5) |
| --- | --- |
| CCOc1cc(F)ccc1-c1sc2ccccc2c1-c1c(O)c(C)nn(C)c1=O [1-061] | 3 (Herbicidal rate of 40% or more and less than 70%) |
| CCCC(=O)Oc1c(C)nn(C)c(=O)c1-c1c(-c2ccc(OC)c(OC)c2)sc2ccccc12 [1-073] | 5 (Herbicidal rate of 90% or more (almost completely withered)) |

system: velvetleaf; assay: Test Example 5: herbicidal effect by foliage application, plastic box (Table 20, symbol M); type: in vivo, velvetleaf (Abutilon theophrasti); details: foliage application, 320 g/ha, three weeks after application
In short: as §2

| Compound | herbicidal effect grade, M: velvetleaf |
| --- | --- |
| CCOc1cc(F)ccc1-c1sc2ccccc2c1-c1c(O)c(C)nn(C)c1=O [1-061] | 5 (Herbicidal rate of 90% or more (almost completely withered)) |
| CCCC(=O)Oc1c(C)nn(C)c(=O)c1-c1c(-c2ccc(OC)c(OC)c2)sc2ccccc12 [1-073] | 5 (Herbicidal rate of 90% or more (almost completely withered)) |

system: persian speedwell; assay: Test Example 4: herbicidal effect by soil treatment (Table 19, symbol R); type: in vivo, Persian speedwell (Veronica persica); details: amount of applied herbicide 320 g/ha
In short: as §1

| Compound | herbicidal effect rating, R: persian speedwell |
| --- | --- |
| CCOc1cc(F)ccc1-c1sc2ccccc2c1-c1c(O)c(C)nn(C)c1=O [1-061] | 5 (Herbicidal rate of 90% or more (almost completely withered)) |
| CCCC(=O)Oc1c(C)nn(C)c(=O)c1-c1c(-c2ccc(OC)c(OC)c2)sc2ccccc12 [1-073] | 5 (Herbicidal rate of 90% or more (almost completely withered)) |

system: blackgrass; assay: Test Example 4: herbicidal effect by soil treatment (Table 19, symbol J); type: in vivo, blackgrass (Alopecurus myosuroides); details: amount of applied herbicide 320 g/ha
In short: as §1

| Compound | herbicidal effect rating, J: blackgrass |
| --- | --- |
| CCOc1cc(F)ccc1-c1sc2ccccc2c1-c1c(O)c(C)nn(C)c1=O [1-061] | 5 (Herbicidal rate of 90% or more (almost completely withered)) |
| CCCC(=O)Oc1c(C)nn(C)c(=O)c1-c1c(-c2ccc(OC)c(OC)c2)sc2ccccc12 [1-073] | 2 (Herbicidal rate of 20% or more and less than 40%) |

system: velvetleaf; assay: Test Example 4: herbicidal effect by soil treatment (Table 19, symbol M); type: in vivo, velvetleaf (Abutilon theophrasti); details: amount of applied herbicide 320 g/ha
In short: as §1

| Compound | herbicidal effect rating, M: velvetleaf |
| --- | --- |
| CCOc1cc(F)ccc1-c1sc2ccccc2c1-c1c(O)c(C)nn(C)c1=O [1-061] | 0 (Herbicidal rate of 5% or less (almost no effect)) |
| CCCC(=O)Oc1c(C)nn(C)c(=O)c1-c1c(-c2ccc(OC)c(OC)c2)sc2ccccc12 [1-073] | 4 (Herbicidal rate of 70% or more and less than 90%) |

system: barnyard grass; assay: Test Example 3: herbicidal effect by foliage application, Wagner pot (Table 18, symbol H); type: in vivo, barnyard grass (Echinochloa crus-galli); details: 320 g/ha
In short: as §3

| Compound | herbicidal effect on H (barnyard grass), rating 0-5 |
| --- | --- |
| CCOc1cc(F)ccc1-c1sc2ccccc2c1-c1c(O)c(C)nn(C)c1=O [1-061] | 5 (Herbicidal rate of 90% or more (almost completely withered)) |
| CCCC(=O)Oc1c(C)nn(C)c(=O)c1-c1c(-c2ccc(OC)c(OC)c2)sc2ccccc12 [1-073] | 5 (Herbicidal rate of 90% or more (almost completely withered)) |

system: Italian ryegrass; assay: Test Example 5: herbicidal effect by foliage application, plastic box (Table 20, symbol K); type: in vivo, Italian ryegrass (Lolium multiflorum); details: foliage application, 320 g/ha, three weeks after application
In short: as §2

| Compound | herbicidal effect grade, K: Italian ryegrass |
| --- | --- |
| CCOc1cc(F)ccc1-c1sc2ccccc2c1-c1c(O)c(C)nn(C)c1=O [1-061] | 4 (Herbicidal rate of 70% or more and less than 90%) |
| CCCC(=O)Oc1c(C)nn(C)c(=O)c1-c1c(-c2ccc(OC)c(OC)c2)sc2ccccc12 [1-073] | 5 (Herbicidal rate of 90% or more (almost completely withered)) |

system: late watergrass; assay: Test Example 2: herbicidal activity, application during weed generation under submerged conditions (Table 17, symbol A); type: in vivo, late watergrass (Echinochloa oryzicola); details: AAH 320 g/ha; application during weed generation, submerged conditions
In short: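 Herbicide emulsion, diluted with water to the chosen amount, is applied onto 4 cm floodwater over alluvial soil where the weeds were co-sown and raised at 25–30° C. Application timing: 1–2 leaves. Assessment: three weeks afterwards.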

| Compound | herbicidal effect rating, A: late watergrass |
| --- | --- |
| CCOc1cc(F)ccc1-c1sc2ccccc2c1-c1c(O)c(C)nn(C)c1=O [1-061] | 0 (Herbicidal rate of 5% or less (almost no effect)) |
| CCCC(=O)Oc1c(C)nn(C)c(=O)c1-c1c(-c2ccc(OC)c(OC)c2)sc2ccccc12 [1-073] | 4 (Herbicidal rate of 70% or more and less than 90%) |

system: southern crabgrass; assay: Test Example 4: herbicidal effect by soil treatment (Table 19, symbol F); type: in vivo, southern crabgrass (Digitaria ciliaris); details: amount of applied herbicide 320 g/ha
In short: as §1

| Compound | herbicidal effect rating, F: southern crabgrass |
| --- | --- |
| CCOc1cc(F)ccc1-c1sc2ccccc2c1-c1c(O)c(C)nn(C)c1=O [1-061] | 5 (Herbicidal rate of 90% or more (almost completely withered)) |
| CCCC(=O)Oc1c(C)nn(C)c(=O)c1-c1c(-c2ccc(OC)c(OC)c2)sc2ccccc12 [1-073] | 5 (Herbicidal rate of 90% or more (almost completely withered)) |
